Experimental data taken from patent publication US9399028B2, “Treatment of drug resistant cancer” (ROCKEFELLER UNIVERSITY (THE), priority 2012, dated 2016).
Where a name gives a salt, the structure may show the parent alone.

Key:
[1] = system: human melanoma cells (MeWo, MeWo-LM2, A375-LM3, HT-144, SK-Mel-334.2); experiment: Tail-vein lung metastatic colonization assay, bioluminescence imaging; assay type: in vivo
Experimental: After 8 hours, the transfection media was replaced with fresh media. After 48 hours, 1×10^5 cells were injected intravenously into NOD-SCID mice to assess lung metastatic colonization or through intracardiac injection into athymic nude mice to assess systemic metastasis. For cell invasion and endothelial recruitment in vitro assays, the cells were used 96 hours post-transfection.
Melanoma cells used for in vivo metastasis assays were transduced with a stably expressed retroviral construct encoding a luciferase reporter gene (Ponomarev et al., 2004), allowing us to monitor the in vivo progression of melanoma cells by bioluminescence imaging. The following numbers of melanoma cells, resuspended in 100 μL, of PBS, were injected intravenously via the tail-vein: 4×10^4 MeWo cells, 2.5×10^5 HT-144 cells, 2×10^5 SK-Mel-334.2 cells, 5×10^4B16F10 cells, and 1×10^5 YUMM cells. The MeWo, HT-144, and SK-Mel-334.2 cells were injected into 6-8 week-old sex-matched NOD scid mice, while the B16F10 and YUMM cells were injected into 6-8 week-old sex-matched C57BL/6 mice. In all experiments assessing at the effects of GW3965 on metastasis formation, mice were pre-treated on a control diet or a GW3965-supplemented diet (20 mg/kg) for 10 days. To assess the effect of GW3965 treatment on brain metastasis, 1×10^5 MeWo brain-metastatic derivatives were injected intracardially into athymic nude mice. Immediately following injection, mice were randomly assigned to a control diet or GW3965-supplemented diet (100 mg/kg). To determine whether oral delivery of GW3965 can inhibit the progression of incipient metastasis, NOD Scid mice were intravenously injected with 4×10^4 MeWo cells and the cells were allowed to colonize the lungs for 42 days, after which mice were blindedly assigned to a control diet or a GW3965-supplemented diet (100 mg/kg) treatment.

ApoE = ApoE expression in vivo (western blot, qRT-PCR) in mouse tissues, white blood cells and tumors; details: for ApoE protein expression in systemic adipose, lung, and brain tissues: chow 20 mg/kg for 10 days, western blot; for ApoE transcript levels in circulating white blood cells: diet 20 mg/kg for 10 days
Experimental: FIG. 29A-K. Therapeutic Delivery of LXR Agonists Upregulates Melanoma-Derived and Systemic ApoE Expression. (FIG. 29A-FIG. 29B) ApoE expression levels, quantified by qRT-PCR, in subcutaneous tumors formed by B16F10 mouse melanoma cells injected into C57BL/6 mice. After 5-mm3 tumor formation, mice were fed a control diet or diet containing GW3965 (20 mg/kg) (FIG. 29A) or T0901317 (20 mg/kg) (FIG. 29B) for 7 days. n=3-4. (FIG. 29C-FIG. 29E) ApoE transcript expression in primary tumors (FIG. 29C), lung metastases (FIG. 29D), and brain metastases (FIG. 29E) formed by MeWo human melanoma cells grafted onto NOD Scid mice that were administered control chow or chow supplemented with GW3965 (20 mg/kg). ApoE levels were assessed on day 35 (FIG. 29C), day 153 (FIG. 29D), and day 34 (FIG. 29E) post-injection of the cancer cells. n=3-5. (FIG. 29F) Relative expression levels of LXRα, LXRβ, and ApoE were determined by qRT-PCR in B16F10 mouse melanoma cells expressing a control hairpin or an shRNA targeting mouse LXRα (sh_mLXRα), mouse LXRβ (sh_mLXRβ), or mouse ApoE (sh_mApoE). (FIG. 29G-FIG. 29H) ApoE (FIG. 29G) and ABCA1 (FIG. 29H) mRNA levels, measured by qRT-PCR, in B16F10 cells expressing a control shRNA or shRNAs targeting mouse LXRβ or mouse ApoE. The cells were treated with DMSO or GW3965 at 5 μM for 48 hours. n=3. (FIG. 29I) ABCA1 mRNA levels, measured by qRT-PCR, in systemic white blood cells extracted from LXRα−/− or LXRβ−/− mice fed a control diet or a GW3965-supplemented diet (20 mg/kg) for 10 days. n=3-4. (FIG. 29J) Relative expression of ApoE mRNA, expressed as the frequency of SAGE tags, in mouse skin and lung tissues was determined using the public mSAGE Expression Matrix database available through the NCI-funded Cancer Genome Anatomy Project (CGAP). (FIG. 29K) Relative expression of ApoE mRNA, determined by qRT-PCR, in MeWo melanoma cells dissociated from lung metastatic nodules (LM2) or primary tumors relative to control unselected MeWo parental cells. n=3.
FIG. 30A-I. LXRβ Agonism Suppresses Melanoma Tumor Growth and Metastasis by Inducing Melanoma-Derived and Systemic ApoE Expression. […] (FIG. 30B) Quantification of ApoE protein expression based on western blots shown in (FIG. 30A). […] (FIG. 30C) Expression levels of ApoE, determined by qRT-PCR, in systemic white blood cells from mice fed a control diet or a diet supplemented with GW3965 or T0901317 at 20 mg/kg for 10 days. n=3-6. […] Once the tumors reached 5-10 mm3 in volume, mice were fed a control diet or a diet supplemented with GW3965 (20 mg/kg) for 7 days, after which final tumor volume was measured. […] (FIG. 30E) ApoE transcript levels, quantified by qRT-PCR, in systemic white blood cells extracted from LXRα−/− or LXRβ−/− mice fed a control diet or a GW3965-supplemented diet (20 mg/kg) for 10 days. n=3-5. […]

| Compound | reduction in metastatic colonization capacity ([1]; MeWo cells pre-treated at 1 μM for 48 hours before injection) | reduction in lung metastatic colonization ([1]; MeWo cells, oral in chow 20 mg/kg from 10 days before injection) [fold] | survival times following metastatic colonization ([1]; MeWo, chow 20 mg/kg) | suppression of colonization by incipient lung metastases ([1]; MeWo, diet 100 mg/kg from d42) [fold] | number of macroscopic metastatic nodules formed ([1]; MeWo, diet 100 mg/kg from d42, lungs at d77) | metastatic colonization by HT-144 and SK-Mel-334.2 ([1]; oral in diet) | in vivo melanoma metastasis (lung, bioluminescence) ([1]; parental MeWo cells, chow diet 20 mg/kg) | ApoE protein expression in systemic adipose, lung, and brain tissues (ApoE) | ApoE transcript levels in circulating white blood cells (ApoE) | suppression of metastatic colonization ([1]; MeWo-LM2 cells pre-incubated 24 hours at 100 μg/mL before injection, NOD-SCID mice) |
| --- | --- | --- | --- | --- | --- | --- | --- | --- | --- | --- |
| O=C(O)Cc1cccc(OCCCN(Cc2cccc(C(F)(F)F)c2Cl)CC(c2ccccc2)c2ccccc2)c1 [GW3965 2, 3-[3-[N-(2-Chloro-3-trifluoromethylbenzyl)-(2,2-diphenylethyl)amino]propyloxy]phenylacetic acid hydrochloride] | more than 50 fold | 31 | significantly prolonged | 28 | decreased | suppressed | significant reduction | significantly elevated | upregulated | – |
| O=S(=O)(c1ccccc1)N(CC(F)(F)F)c1ccc(C(O)(C(F)(F)F)C(F)(F)F)cc1 [T0901317 1] | – | – | – | – | – | – | – | significantly elevated | upregulated | – |
| recombinant human ApoE3: recombinant human ApoE3 (4696, BioVision) | – | – | – | – | – | – | – | – | – | over 300 fold |
